Source: PubChem BioAssay AID463203 (Broad Institute, 2010)
Activity calls are given as the source filed them.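 Rule for the calls: active = more than half of replicate measurements showing over 20% loss of kinase signal relative to plate controls; inconclusive = some but at most half of replicates over 20% loss; inactive = no replicate over 20% signal loss.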

These compounds were tested against Glycogen synthase kinase-3 alpha (Homo sapiens) (UniProt P49840) (assay: concentration-response blocking of human GSK3A – biochemical, luminescence, cell-free homogeneous, retest, dose response (AID 463203)). Settings: GSK-3 alpha enzyme, ADP-Glo luminescence, 60 min.
Chain of Glycogen synthase kinase-3 alpha (Homo sapiens) (P49840 whole entry, looked up): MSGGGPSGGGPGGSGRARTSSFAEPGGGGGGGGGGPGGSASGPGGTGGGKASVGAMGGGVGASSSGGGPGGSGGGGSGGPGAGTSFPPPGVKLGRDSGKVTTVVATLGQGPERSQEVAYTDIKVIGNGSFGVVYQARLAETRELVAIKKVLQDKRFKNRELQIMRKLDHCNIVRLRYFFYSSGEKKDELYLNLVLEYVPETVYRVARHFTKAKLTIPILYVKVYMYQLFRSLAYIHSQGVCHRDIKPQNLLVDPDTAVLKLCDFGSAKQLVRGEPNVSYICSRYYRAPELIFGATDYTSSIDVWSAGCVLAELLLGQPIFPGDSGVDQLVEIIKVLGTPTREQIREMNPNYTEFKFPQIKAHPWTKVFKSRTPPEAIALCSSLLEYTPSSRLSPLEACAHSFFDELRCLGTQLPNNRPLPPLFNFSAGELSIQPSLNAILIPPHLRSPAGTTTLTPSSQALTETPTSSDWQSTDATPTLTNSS
For `CCN1CCN(c2nc(Nc3cccc(OC)c3)nc(N)c2[N+](=O)[O-])CC1`, the AC50 was > 30 µM (inactive).
With `COc1ccccc1C(=O)NNC(=O)c1cccc(F)c1` the AC50 was > 30 µM (inactive).
Work on `C/C(=N\NC(=O)c1ccccc1NC(=O)c1ccc(Cl)cc1)c1ccncc1` yielded an AC50 of 12.6 µM.
In the case of `CC(C)CCNc1nc(N)c([N+](=O)[O-])c(N2CCCCCC2)n1`, the AC50 is reported as 8.86 µM.
`CCCCn1c(O)c(C(C)=NCCCn2ccnc2)c(=O)[nH]c1=O` showed an AC50 of 11.1 µM.
For `CC1=C(C(=O)OCc2ccc3c(c2)OCO3)C(c2ccccc2OCc2ccccc2)NC(=O)N1` (stereo unspecified), the AC50 was > 30 µM (inactive).
With `COc1ccc(-c2cc(C(F)(F)F)nc(SCC(=O)NCc3cccs3)n2)cc1` the AC50 was > 30 µM (inactive).
`O=[N+]([O-])c1ccc(Nc2nc(NC3CCCCC3)nc(N3CCCC3)n2)cc1` was tested, and the AC50 was > 30 µM (inactive).
For `O=C(Oc1cccc([N+](=O)[O-])c1)N1CCCCC1`, the AC50 was > 30 µM (inactive).
For `CCC(CO)Nc1ncc([N+](=O)[O-])cc1C#N` (stereo unspecified), the AC50 was > 30 µM (inactive).
In the case of `COc1ccc(Nc2nc(S(=O)(=O)c3ccc(C)cc3)c(Cl)s2)cc1`, the AC50 is reported as > 30 µM (inactive).
`CCCCc1ccc(NC(=O)N[C@H](C(=O)O)C(C)CC)cc1` (stereo partly specified) was tested, and the AC50 was > 30 µM (inactive).
With `Cc1cccc(C)c1OC(=O)Cc1ccccc1[N+](=O)[O-]` the AC50 was > 30 µM (inactive).
With `COc1ccccc1NC(=O)c1cc2ccc(O)cc2o/c1=N\O` the AC50 was > 30 µM (inactive).
`N#CC1=C2SCN(Cc3ccco3)CN2C(=O)CC1c1cccc2ccccc12` (stereo unspecified) was tested, and the AC50 was > 30 µM (inactive).
`Cc1cccc(NC(=O)CSc2nc3[nH]ncc3c(=O)n2-c2ccccc2)c1` was tested, and the AC50 was > 30 µM (inactive).
In the case of `CC1=NN(c2nc(-c3ccc(Cl)cc3)cs2)C(=O)C1`, the AC50 is reported as > 30 µM (inactive).
In the case of `CCCCOC(=O)c1ccc(N/C(=N\S(=O)(=O)c2ccccc2)c2ccccc2)cc1`, the AC50 is reported as > 30 µM (inactive).
`O=C1c2cnc3nc(SCc4cccc(Cl)c4)nn3c2CC2c3ccccc3CCN12` (stereo unspecified) was tested, and the AC50 was > 30 µM (inactive).
For `Cc1nc(NC(=O)c2ccc(Br)o2)sc1C`, the AC50 was > 30 µM (inactive).
With `COc1ccc(CC(=S)N2CCOCC2)cc1` the AC50 was > 30 µM (inactive).
For `CC(C)OC(=O)/C(C#N)=C/c1c[nH]c2ccccc12`, the AC50 was > 30 µM (inactive).
`COc1cccc(Nc2nc(N)c([N+](=O)[O-])c(NCc3ccco3)n2)c1` was tested, and the AC50 was 5.75 µM.
For `CCOC(=O)c1cc(-c2ccc(C)cc2)n(CCC(=O)NC(C)CC)c1C` (stereo unspecified), the AC50 was > 30 µM (inactive).
For `N#Cc1c(-c2ccc(F)cc2)c2c([nH]c1=O)-c1ccccc1OC2`, the AC50 was > 30 µM (inactive).
With `Cc1cc(C)c(OCC(O)CNC(C)(C)C)c(C)c1` (stereo unspecified) the AC50 was > 30 µM (inactive).
`O=C(NCc1ccc(C(=O)N2CCC3(CC2)OCCO3)cc1)c1cccc(Br)c1` was tested, and the AC50 was > 30 µM (inactive).
For `Cc1ccc(NC(=O)CSc2nnc(-c3ccncc3)s2)cc1`, the AC50 was > 30 µM (inactive).
Compound `N#C/C(C(N)=O)=C1/CCc2ccccc2N1` has an AC50 of 12.5 µM.
In the case of `O=C(NC(=S)Nc1cccc2cnccc12)c1ccccc1`, the AC50 is reported as > 30 µM (inactive).
In the case of `O=C(CSc1nc2nc(-c3cccs3)cc(C(F)(F)F)c2c(=O)[nH]1)Nc1ccc(F)c(F)c1`, the AC50 is reported as > 30 µM (inactive).
With `Fc1ccccc1CSc1nnc(-c2cccnc2)o1` the AC50 was > 30 µM (inactive).
`CCOC(=O)c1nnn(-c2nonc2N)c1-c1ccc(F)cc1` was tested, and the AC50 was 16.1 µM.
For `Cc1ccc(C(=O)O/N=C(\N)c2cccc([N+](=O)[O-])c2)cc1`, the AC50 was > 30 µM (inactive).
For `COC(=O)CCCNc1ncccc1[N+](=O)[O-]`, the AC50 was > 30 µM (inactive).
For `COc1ccccc1Nc1nc(Cl)c(C=O)s1`, the AC50 was > 30 µM (inactive).
In the case of `Clc1cccc(/C=N/Nc2ncnc3ccccc23)c1`, the AC50 is reported as > 30 µM (inactive).
`COc1cc(C(=O)NCC(=O)N/N=C\C(C)=C/c2ccccc2)cc(OC)c1OC` was tested, and the AC50 was > 30 µM (inactive).
`Cc1c(CN(C)C)c2c(n1Cc1ccccc1)C(=O)c1ccccc1-2` was tested, and the AC50 was > 30 µM (inactive).
For `Cc1cc2nc(-c3ccc(SCC(=O)NC(C)C)nc3)[nH]c2cc1C`, the AC50 was > 30 µM (inactive).
In the case of `O=C(/C=C/c1cccc2ccccc12)c1ccncc1`, the AC50 is reported as > 30 µM (inactive).
